Test results as given in PMC8766756, “Insights on Cancer Cell Inhibition, Subcellular Activities, and Kinase Profile of Phenylacetamides Pending 1H-Imidazol-5-One Variants” (Frontiers in Pharmacology, 2022).
Values joined by “and” are separate entries in the source; they are usually repeats but may differ in a detail not shown here. Identical values can stand only once.

Experiments:
Test in all cases: PamChip tyrosine kinase microarray
Type in all cases: biochemical
Details in all cases: 0.1 µM, HL60 lysate
HER4 (Q15303) = biological target: T1, HER4 (Q15303) (Homo sapiens, UniProt Q15303)
T1 construct: purchased PamGene (PamChip PTK array, Upstream Kinase Analysis)
T1 sequence (Q15303 26-1308): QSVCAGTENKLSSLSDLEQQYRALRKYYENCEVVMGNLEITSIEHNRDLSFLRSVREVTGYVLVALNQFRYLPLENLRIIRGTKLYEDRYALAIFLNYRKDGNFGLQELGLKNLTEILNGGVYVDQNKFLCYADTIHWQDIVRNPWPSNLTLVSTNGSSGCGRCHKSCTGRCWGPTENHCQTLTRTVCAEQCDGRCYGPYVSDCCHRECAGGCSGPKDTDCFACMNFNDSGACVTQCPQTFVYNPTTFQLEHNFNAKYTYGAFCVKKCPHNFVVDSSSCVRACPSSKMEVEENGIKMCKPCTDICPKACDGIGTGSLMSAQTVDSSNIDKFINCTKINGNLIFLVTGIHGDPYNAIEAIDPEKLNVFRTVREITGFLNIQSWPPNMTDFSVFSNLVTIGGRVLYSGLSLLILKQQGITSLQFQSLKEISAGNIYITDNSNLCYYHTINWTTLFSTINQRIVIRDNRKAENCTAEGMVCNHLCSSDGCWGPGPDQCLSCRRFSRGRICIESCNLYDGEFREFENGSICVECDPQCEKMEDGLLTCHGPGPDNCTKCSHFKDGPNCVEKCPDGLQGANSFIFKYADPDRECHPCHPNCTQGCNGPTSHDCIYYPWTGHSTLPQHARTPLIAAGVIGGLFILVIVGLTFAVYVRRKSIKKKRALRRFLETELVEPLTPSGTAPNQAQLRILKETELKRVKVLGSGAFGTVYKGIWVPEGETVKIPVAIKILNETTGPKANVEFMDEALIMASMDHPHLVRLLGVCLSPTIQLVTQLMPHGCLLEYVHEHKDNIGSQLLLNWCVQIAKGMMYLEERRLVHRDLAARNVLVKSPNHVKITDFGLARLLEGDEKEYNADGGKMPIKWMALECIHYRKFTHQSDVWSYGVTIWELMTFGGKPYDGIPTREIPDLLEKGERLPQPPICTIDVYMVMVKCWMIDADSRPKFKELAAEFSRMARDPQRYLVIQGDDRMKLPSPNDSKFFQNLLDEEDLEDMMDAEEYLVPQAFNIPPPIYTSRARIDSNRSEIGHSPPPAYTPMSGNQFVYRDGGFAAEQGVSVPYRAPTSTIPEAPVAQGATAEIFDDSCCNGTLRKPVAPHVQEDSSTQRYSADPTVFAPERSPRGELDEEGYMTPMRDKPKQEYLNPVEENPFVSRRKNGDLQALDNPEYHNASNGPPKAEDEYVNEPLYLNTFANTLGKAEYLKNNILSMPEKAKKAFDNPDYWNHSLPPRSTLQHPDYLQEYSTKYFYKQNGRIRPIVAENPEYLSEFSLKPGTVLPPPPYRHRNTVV
Outline: (§1)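 HL60 (AML) cell lysate was spiked with compound at 0.001, 0.01, 0.1, 1, 10 and 50 µM, or 2% v/v DMSO as control, then profiled in technical replicates on a tyrosine kinase peptide array of 196 phosphosites. Kinase activity was inferred from peptide-set changes using an upstream kinase tool.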

EGFR (P00533) = biological target: T2, EGFR (P00533) (Homo sapiens, UniProt P00533)
T2 construct: purchased PamGene (PamChip PTK array, Upstream Kinase Analysis)
T2 sequence (P00533 25-1210): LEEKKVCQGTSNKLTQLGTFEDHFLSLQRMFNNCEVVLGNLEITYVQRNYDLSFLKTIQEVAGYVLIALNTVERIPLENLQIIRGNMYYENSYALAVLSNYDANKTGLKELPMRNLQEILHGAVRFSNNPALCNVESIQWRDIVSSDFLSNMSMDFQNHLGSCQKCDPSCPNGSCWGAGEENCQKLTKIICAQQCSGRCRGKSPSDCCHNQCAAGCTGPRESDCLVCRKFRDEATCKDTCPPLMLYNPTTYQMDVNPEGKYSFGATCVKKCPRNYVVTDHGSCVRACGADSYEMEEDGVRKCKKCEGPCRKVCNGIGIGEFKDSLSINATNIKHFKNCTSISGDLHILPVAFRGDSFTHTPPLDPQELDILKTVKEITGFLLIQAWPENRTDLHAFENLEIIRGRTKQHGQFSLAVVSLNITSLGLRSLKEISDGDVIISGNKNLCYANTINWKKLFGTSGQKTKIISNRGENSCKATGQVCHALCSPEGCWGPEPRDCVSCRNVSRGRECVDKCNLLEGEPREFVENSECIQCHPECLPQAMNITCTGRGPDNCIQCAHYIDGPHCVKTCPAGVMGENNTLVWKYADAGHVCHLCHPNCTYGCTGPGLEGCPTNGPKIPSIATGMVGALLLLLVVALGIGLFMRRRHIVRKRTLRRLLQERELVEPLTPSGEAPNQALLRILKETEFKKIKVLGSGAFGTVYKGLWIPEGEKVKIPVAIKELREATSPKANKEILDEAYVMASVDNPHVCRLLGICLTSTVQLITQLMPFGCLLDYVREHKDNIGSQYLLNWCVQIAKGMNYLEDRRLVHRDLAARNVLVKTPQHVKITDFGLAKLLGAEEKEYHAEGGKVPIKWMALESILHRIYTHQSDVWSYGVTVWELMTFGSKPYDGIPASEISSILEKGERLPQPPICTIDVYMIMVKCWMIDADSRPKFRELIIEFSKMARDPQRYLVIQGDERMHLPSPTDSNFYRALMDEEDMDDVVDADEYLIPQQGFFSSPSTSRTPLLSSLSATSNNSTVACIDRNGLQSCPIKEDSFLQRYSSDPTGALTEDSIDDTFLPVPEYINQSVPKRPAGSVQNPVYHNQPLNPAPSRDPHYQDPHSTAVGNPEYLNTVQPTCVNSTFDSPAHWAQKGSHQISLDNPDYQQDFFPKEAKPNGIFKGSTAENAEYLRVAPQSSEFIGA
Outline: as §1

TRKC (Q16288) = biological target: T3, TRKC (Q16288) (Homo sapiens, UniProt Q16288)
T3 construct: purchased PamGene (PamChip PTK array, Upstream Kinase Analysis)
T3 sequence (Q16288 32-839): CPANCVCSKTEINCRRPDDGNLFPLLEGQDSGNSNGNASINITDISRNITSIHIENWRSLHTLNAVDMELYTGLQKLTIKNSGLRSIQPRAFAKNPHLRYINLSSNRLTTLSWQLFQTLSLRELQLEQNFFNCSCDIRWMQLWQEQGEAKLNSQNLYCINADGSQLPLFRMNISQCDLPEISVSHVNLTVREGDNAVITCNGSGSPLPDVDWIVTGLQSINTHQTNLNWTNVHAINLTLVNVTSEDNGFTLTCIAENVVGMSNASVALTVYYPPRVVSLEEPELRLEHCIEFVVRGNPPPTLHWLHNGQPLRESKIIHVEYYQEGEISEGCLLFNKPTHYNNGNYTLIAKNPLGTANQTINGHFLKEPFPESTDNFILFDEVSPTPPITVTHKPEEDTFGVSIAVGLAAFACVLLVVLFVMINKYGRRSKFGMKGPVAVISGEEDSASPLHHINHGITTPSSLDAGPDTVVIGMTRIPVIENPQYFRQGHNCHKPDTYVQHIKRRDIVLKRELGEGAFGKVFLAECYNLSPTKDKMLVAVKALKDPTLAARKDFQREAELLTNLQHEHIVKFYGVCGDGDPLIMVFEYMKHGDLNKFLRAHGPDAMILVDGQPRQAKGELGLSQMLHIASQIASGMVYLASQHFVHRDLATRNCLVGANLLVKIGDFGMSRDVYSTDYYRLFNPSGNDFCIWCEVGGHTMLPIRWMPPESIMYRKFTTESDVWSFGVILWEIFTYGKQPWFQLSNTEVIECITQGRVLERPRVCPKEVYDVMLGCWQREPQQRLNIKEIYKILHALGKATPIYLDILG
Outline: as §1

EphA2 (P29317) = biological target: T4, EphA2 (P29317) (Homo sapiens, UniProt P29317)
T4 construct: purchased PamGene (PamChip PTK array, Upstream Kinase Analysis)
Outline: as §1

SRM (Q9H3Y6) = biological target: T5, SRM (Q9H3Y6) (Homo sapiens, UniProt Q9H3Y6)
T5 construct: purchased PamGene (PamChip PTK array, Upstream Kinase Analysis)
T5 sequence (Q9H3Y6 whole entry): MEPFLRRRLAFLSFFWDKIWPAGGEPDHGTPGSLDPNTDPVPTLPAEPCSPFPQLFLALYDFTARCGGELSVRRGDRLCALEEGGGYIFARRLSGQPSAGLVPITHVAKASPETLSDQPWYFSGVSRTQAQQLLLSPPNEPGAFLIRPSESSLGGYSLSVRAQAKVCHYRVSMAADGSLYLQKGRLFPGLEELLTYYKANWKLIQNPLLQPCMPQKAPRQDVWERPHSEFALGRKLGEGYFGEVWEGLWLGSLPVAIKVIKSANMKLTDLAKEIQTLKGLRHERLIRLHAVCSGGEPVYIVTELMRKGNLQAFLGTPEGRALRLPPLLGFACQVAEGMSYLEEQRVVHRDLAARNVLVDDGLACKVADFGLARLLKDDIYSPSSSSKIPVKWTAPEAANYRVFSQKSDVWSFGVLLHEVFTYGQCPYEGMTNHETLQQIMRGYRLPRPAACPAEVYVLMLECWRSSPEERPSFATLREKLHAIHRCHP
Outline: as §1

EphA7 (Q15375) = biological target: T6, EphA7 (Q15375) (Homo sapiens, UniProt Q15375)
T6 construct: purchased PamGene (PamChip PTK array, Upstream Kinase Analysis)
Outline: as §1

EphA3 (P29320) = biological target: T7, EphA3 (P29320) (Homo sapiens, UniProt P29320)
T7 construct: purchased PamGene (PamChip PTK array, Upstream Kinase Analysis)
T7 sequence (P29320 21-983): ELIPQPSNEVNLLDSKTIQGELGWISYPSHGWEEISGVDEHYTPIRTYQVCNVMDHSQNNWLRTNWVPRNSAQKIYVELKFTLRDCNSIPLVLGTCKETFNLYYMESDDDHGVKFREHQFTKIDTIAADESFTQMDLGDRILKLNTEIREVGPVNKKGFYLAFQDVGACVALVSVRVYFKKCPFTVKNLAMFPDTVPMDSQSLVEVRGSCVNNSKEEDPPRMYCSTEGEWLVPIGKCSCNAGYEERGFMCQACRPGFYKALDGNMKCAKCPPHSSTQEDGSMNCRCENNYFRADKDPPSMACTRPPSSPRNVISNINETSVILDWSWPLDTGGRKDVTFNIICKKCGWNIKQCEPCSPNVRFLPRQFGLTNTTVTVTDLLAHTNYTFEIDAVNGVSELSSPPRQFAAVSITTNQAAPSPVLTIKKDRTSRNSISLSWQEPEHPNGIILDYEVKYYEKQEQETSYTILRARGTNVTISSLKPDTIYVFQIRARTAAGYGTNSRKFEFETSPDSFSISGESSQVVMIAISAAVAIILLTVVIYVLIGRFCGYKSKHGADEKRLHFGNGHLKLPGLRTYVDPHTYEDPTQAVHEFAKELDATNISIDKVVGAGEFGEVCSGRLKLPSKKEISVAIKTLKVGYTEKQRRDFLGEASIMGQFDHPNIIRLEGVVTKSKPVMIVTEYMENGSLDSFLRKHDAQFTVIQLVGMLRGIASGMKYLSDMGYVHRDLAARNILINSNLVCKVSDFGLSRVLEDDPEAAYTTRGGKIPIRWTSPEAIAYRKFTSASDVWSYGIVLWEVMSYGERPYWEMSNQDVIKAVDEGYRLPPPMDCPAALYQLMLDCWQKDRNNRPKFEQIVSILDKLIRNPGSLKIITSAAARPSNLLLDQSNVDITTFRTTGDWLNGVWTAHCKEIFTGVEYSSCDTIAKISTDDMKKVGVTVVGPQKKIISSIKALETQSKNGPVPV
Outline: as §1

Fyn (P06241) = biological target: T8, Fyn (P06241) (Homo sapiens, UniProt P06241)
T8 construct: purchased PamGene (PamChip PTK array, Upstream Kinase Analysis)
T8 sequence (P06241 whole entry): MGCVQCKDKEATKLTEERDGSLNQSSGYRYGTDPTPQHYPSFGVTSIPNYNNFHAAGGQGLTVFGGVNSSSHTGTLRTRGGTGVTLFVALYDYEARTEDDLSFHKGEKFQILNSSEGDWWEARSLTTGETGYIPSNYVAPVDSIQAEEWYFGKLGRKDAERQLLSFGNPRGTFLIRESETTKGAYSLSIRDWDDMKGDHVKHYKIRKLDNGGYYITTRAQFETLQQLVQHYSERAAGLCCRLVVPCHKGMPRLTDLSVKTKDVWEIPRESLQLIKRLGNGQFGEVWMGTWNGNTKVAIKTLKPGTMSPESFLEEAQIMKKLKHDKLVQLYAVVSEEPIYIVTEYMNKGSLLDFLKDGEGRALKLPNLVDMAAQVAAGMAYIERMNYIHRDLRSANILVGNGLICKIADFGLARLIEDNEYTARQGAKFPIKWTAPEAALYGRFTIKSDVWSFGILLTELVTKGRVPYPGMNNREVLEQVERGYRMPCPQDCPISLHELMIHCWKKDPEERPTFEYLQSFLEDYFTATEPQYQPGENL
Outline: as §1

ALK (Q9UM73) = biological target: T9, ALK (Q9UM73) (Homo sapiens, UniProt Q9UM73)
T9 construct: purchased PamGene (PamChip PTK array, Upstream Kinase Analysis)
Outline: as §1

COc1ccc(/C=C2\N=C(C)N(c3ccc(CC(=O)NCc4ccccc4)cc3)C2=O)cc1 [Compound 4c, (Z)-N-Benzyl-2-(4-(4-(4-methoxybenzylidene)-2-methyl-5-oxo-4,5-dihydro-1H-imidazol-1-yl)phenyl)acetamide]
Mean Final score (Kinase score) (HER4 (Q15303)): 2.227 | Mean Kinase Statistic (HER4 (Q15303)): -1.109 | Mean Significance Score (HER4 (Q15303)): 2.048 | Mean Specificity Score (HER4 (Q15303)): 0.2042 | Mean Final score (Kinase score) (EGFR (P00533)): 2.116 | Mean Kinase Statistic (EGFR (P00533)): -1.053 | Mean Significance Score (EGFR (P00533)): 2.048 | Mean Specificity Score (EGFR (P00533)): 0.03887 | Mean Final score (Kinase score) (TRKC (Q16288)): 2.207 | Mean Kinase Statistic (TRKC (Q16288)): -1.079 | Mean Significance Score (TRKC (Q16288)): 2.048 | Mean Specificity Score (TRKC (Q16288)): 0.1464 | Mean Significance Score (EphA2 (P29317)): 1.975 | Mean Specificity Score (EphA2 (P29317)): 0.9606 | Mean Final score (Kinase score) (EphA2 (P29317); listed as KIM-161): 3.09 and 3.095 | Mean Significance Score (SRM (Q9H3Y6)): 2.048 | Mean Specificity Score (SRM (Q9H3Y6)): 1.961 | Mean Final score (Kinase score) (SRM (Q9H3Y6); listed as KIM-161): 4.1 and 4.097 | Mean Final score (Kinase score) (EphA7 (Q15375)): 0.8806 | Mean Kinase Statistic (EphA7 (Q15375)): -0.6736 | Mean Significance Score (EphA7 (Q15375)): 0.8204 | Mean Specificity Score (EphA7 (Q15375)): 0.0595 | Mean Final score (Kinase score) (EphA3 (P29320)): 1.273 | Mean Kinase Statistic (EphA3 (P29320)): -0.7527 | Mean Significance Score (EphA3 (P29320)): 1.23 | Mean Specificity Score (EphA3 (P29320)): 0.04291 | Mean Final score (Kinase score) (Fyn (P06241)): 2.45 | Mean Kinase Statistic (Fyn (P06241)): -1.236 | Mean Significance Score (Fyn (P06241)): 2.048 | Mean Specificity Score (Fyn (P06241)): 0.4193 | Mean Final score (Kinase score) (ALK (Q9UM73)): 2.186 | Mean Kinase Statistic (ALK (Q9UM73)): -1.125 | Mean Significance Score (ALK (Q9UM73)): 2.048 | Mean Specificity Score (ALK (Q9UM73)): 0.1497
